Laboratory results: ChEMBL document CHEMBL1149304, “1,3,4-thiadiazole derivatives. Synthesis, structure elucidation, and structure-antituberculosis activity relationship investigation” (2004)

Tested on: Mycobacterium tuberculosis
Experiment: Antituberculosis activity against Mycobacterium tuberculosis H37Rv ATCC 27294 at 6.25 ug/mL
Type: functional

Clc1ccc(Nc2nnc(-c3ccccc3)s2)cc1
inhibition at 6.25 µg/mL: 30%

Fc1ccc(Nc2nnc(-c3ccccc3)s2)cc1
inhibition at 6.25 µg/mL: 50%

Fc1ccc(-c2nnc(Nc3ccc(Cl)cc3)s2)cc1
inhibition at 6.25 µg/mL: 42%

Cc1ccc(Nc2nnc(-c3ccncc3)s2)cc1
inhibition at 6.25 µg/mL: 38%

O=[N+]([O-])c1ccc(Nc2nnc(-c3ccncc3)s2)cc1
inhibition at 6.25 µg/mL: 18%

Fc1ccc(Nc2nnc(-c3ccc(Cl)cc3)s2)cc1
inhibition at 6.25 µg/mL: 54%

Fc1ccc(Nc2nnc(-c3ccc(F)cc3)s2)cc1
inhibition at 6.25 µg/mL: 52%

O=[N+]([O-])c1ccc(Nc2nnc(-c3ccc([N+](=O)[O-])cc3)s2)cc1
inhibition at 6.25 µg/mL: 20%

Fc1ccc(-c2nnc(Nc3ccc(Br)cc3)s2)cc1
inhibition at 6.25 µg/mL: 40%

Clc1ccc(Nc2nnc(-c3ccncc3)s2)cc1
inhibition at 6.25 µg/mL: 59%

O=[N+]([O-])c1ccc(-c2nnc(Nc3ccc(F)cc3)s2)cc1
inhibition at 6.25 µg/mL: 30%

Cc1ccc(Nc2nnc(-c3ccccc3)s2)cc1
inhibition at 6.25 µg/mL: 21%

O=[N+]([O-])c1ccc(Nc2nnc(-c3ccccc3)s2)cc1
inhibition at 6.25 µg/mL: 18%

Brc1ccc(-c2nnc(Nc3ccccc3)s2)cc1
inhibition at 6.25 µg/mL: 0%

O=[N+]([O-])c1ccc(Nc2nnc(-c3ccc(Br)cc3)s2)cc1
inhibition at 6.25 µg/mL: 43%

Clc1ccc(-c2nnc(Nc3ccc(Br)cc3)s2)cc1
inhibition at 6.25 µg/mL: 34%

Clc1ccc(Nc2nnc(-c3ccc(Cl)cc3)s2)cc1
inhibition at 6.25 µg/mL: 32%

O=[N+]([O-])c1ccc(Nc2nnc(-c3ccc(F)cc3)s2)cc1
inhibition at 6.25 µg/mL: 8%

O=[N+]([O-])c1ccc(-c2nnc(Nc3ccc(Br)cc3)s2)cc1
inhibition at 6.25 µg/mL: 26%

Clc1ccc(Nc2nnc(-c3ccc(Br)cc3)s2)cc1
inhibition at 6.25 µg/mL: 33%

Fc1ccc(Nc2nnc(-c3ccc(Br)cc3)s2)cc1
inhibition at 6.25 µg/mL: 42%

Cc1ccc(Nc2nnc(-c3ccc(Br)cc3)s2)cc1
inhibition at 6.25 µg/mL: 31%

Brc1ccc(Nc2nnc(-c3ccccc3)s2)cc1
inhibition at 6.25 µg/mL: 36%

Brc1ccc(Nc2nnc(-c3ccncc3)s2)cc1
inhibition at 6.25 µg/mL: 53%

c1ccc(Nc2nnc(-c3ccncc3)s2)cc1
inhibition at 6.25 µg/mL: 38%

Brc1ccc(Nc2nnc(-c3ccc(Br)cc3)s2)cc1
inhibition at 6.25 µg/mL: 33%

Cc1ccc(Nc2nnc(-c3ccc([N+](=O)[O-])cc3)s2)cc1
inhibition at 6.25 µg/mL: 33%

O=[N+]([O-])c1ccc(Nc2nnc(-c3ccc(Cl)cc3)s2)cc1
inhibition at 6.25 µg/mL: 44%

Cc1ccc(Nc2nnc(-c3ccc(Cl)cc3)s2)cc1
inhibition at 6.25 µg/mL: 42%

Cc1ccc(Nc2nnc(-c3ccc(F)cc3)s2)cc1
inhibition at 6.25 µg/mL: 39%

Fc1ccc(Nc2nnc(-c3ccncc3)s2)cc1
inhibition at 6.25 µg/mL: 49%

O=[N+]([O-])c1ccc(-c2nnc(Nc3ccc(Cl)cc3)s2)cc1
inhibition at 6.25 µg/mL: 29%
